# Changes are numbered by the printed parent chain.
# Tests used:
# ALFY-FYVE [1] = biological target: T1, ALFY-FYVE (Homo sapiens, UniProt Q8IZQ1); assay: 1H-15N HSQC NMR titration, chemical shift perturbation fit; format: binding
# T1 sequence (Q8IZQ1 3428-3518): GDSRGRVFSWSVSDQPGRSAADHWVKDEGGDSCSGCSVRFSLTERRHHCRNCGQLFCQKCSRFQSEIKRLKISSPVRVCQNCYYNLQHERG
# ALFY-FYVE [2] = biological target: T2, ALFY-FYVE (Homo sapiens, UniProt Q8IZQ1, E3471K); assay: as above; format: binding
# T2 sequence (Q8IZQ1 3428-3518 E3471K): T1 sequence (Q8IZQ1 3428-3518) with E44K
smiles,measurement,setting,value
"O=P(O)(O)O[C@@H]1[C@H](O)[C@H](OP(=O)(O)O)[C@@H](O)[C@H](O)[C@H]1O [Ins(1,3)P2]",Kd,ALFY-FYVE [1],50.5 to 184 µM
same,Kd,ALFY-FYVE [2],82.8 to 270 µM
